Experiment [1] in a line: cells. As to conditions: Homo sapiens, KB-V1, 72 h.
Description: Cytotoxicity against human P-glycoprotein-expressing KBV1 cells after 72 hrs by MTT assay
Experiment [2] can be described thus: cells. To be noted: Homo sapiens, KB 3-1, 72 h.
Description: Cytotoxicity against human P-gp-negative KB-3-1 cells after 72 hrs by MTT assay
Experiment [3] deals with Tyrosine-protein kinase ABL1 (Homo sapiens, UniProt P00519). Description: Inhibition of ABL1.
The target in experiment [4] is Cyclin-dependent kinase 2 (Homo sapiens, UniProt P24941). As to the kind of experiment: Inhibition of CDK2/cyclinA.
The target of experiment [5] is Protein kinase C alpha type (Homo sapiens, UniProt P17252). As to the kind of experiment: Inhibition of PKCalpha.
In experiment [6] the target is Rho-associated protein kinase 1 (Homo sapiens, UniProt Q13464). Description: Inhibition of ROCK1.
Chain of Rho-associated protein kinase 1 (Q13464 whole entry): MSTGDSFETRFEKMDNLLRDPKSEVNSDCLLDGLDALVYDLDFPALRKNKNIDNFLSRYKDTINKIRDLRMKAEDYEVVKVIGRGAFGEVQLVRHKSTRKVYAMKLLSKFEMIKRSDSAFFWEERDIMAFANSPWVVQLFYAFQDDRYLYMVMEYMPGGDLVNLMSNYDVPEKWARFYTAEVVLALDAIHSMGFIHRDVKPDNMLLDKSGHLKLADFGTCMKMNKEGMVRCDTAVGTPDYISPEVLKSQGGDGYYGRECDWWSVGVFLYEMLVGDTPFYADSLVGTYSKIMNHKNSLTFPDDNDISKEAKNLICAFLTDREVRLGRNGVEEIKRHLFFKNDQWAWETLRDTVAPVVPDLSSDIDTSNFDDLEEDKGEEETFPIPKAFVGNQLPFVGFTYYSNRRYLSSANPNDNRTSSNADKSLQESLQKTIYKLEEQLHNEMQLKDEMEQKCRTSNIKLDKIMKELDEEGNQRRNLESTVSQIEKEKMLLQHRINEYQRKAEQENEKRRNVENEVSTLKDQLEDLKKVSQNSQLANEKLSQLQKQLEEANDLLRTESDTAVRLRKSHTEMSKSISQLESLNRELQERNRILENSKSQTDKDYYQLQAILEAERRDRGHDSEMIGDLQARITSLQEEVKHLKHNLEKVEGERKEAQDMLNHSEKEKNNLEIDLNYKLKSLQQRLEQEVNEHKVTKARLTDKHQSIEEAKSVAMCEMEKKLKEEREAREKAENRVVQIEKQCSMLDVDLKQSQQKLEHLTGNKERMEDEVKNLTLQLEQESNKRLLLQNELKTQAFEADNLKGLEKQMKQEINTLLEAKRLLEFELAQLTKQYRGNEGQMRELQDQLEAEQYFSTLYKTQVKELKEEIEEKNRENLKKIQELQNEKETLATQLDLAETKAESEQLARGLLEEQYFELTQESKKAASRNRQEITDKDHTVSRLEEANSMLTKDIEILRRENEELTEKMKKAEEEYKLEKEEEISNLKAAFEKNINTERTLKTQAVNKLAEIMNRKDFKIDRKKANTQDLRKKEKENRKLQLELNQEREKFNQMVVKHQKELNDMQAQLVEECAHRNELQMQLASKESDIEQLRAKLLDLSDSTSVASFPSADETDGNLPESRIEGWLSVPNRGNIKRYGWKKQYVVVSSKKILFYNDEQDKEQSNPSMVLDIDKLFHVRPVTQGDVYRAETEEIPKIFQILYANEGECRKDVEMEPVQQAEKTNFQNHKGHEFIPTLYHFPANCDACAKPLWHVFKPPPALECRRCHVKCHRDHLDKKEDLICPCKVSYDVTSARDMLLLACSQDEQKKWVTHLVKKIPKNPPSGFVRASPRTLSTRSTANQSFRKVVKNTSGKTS
Experiment [7] deals with T1, Serine/threonine-protein kinase Chk1 (Homo sapiens, UniProt O14757).
T1 sequence (O14757 whole entry): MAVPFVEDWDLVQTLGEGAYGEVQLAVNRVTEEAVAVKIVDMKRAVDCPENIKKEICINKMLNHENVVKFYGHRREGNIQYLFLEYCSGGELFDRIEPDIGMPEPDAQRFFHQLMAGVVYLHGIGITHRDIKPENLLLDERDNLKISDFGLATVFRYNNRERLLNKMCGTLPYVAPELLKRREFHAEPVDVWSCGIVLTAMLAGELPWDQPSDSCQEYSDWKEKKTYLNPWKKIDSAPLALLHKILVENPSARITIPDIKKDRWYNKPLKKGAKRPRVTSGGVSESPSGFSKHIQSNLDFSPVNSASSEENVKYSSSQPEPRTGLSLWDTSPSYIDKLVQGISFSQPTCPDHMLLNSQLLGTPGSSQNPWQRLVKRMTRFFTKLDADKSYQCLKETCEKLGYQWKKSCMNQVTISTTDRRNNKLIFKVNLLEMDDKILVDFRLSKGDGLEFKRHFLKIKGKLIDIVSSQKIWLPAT

Experiment [8] deals with T2, Receptor-type tyrosine-protein kinase FLT3 (Homo sapiens, UniProt P36888).
T2 sequence (P36888 whole entry): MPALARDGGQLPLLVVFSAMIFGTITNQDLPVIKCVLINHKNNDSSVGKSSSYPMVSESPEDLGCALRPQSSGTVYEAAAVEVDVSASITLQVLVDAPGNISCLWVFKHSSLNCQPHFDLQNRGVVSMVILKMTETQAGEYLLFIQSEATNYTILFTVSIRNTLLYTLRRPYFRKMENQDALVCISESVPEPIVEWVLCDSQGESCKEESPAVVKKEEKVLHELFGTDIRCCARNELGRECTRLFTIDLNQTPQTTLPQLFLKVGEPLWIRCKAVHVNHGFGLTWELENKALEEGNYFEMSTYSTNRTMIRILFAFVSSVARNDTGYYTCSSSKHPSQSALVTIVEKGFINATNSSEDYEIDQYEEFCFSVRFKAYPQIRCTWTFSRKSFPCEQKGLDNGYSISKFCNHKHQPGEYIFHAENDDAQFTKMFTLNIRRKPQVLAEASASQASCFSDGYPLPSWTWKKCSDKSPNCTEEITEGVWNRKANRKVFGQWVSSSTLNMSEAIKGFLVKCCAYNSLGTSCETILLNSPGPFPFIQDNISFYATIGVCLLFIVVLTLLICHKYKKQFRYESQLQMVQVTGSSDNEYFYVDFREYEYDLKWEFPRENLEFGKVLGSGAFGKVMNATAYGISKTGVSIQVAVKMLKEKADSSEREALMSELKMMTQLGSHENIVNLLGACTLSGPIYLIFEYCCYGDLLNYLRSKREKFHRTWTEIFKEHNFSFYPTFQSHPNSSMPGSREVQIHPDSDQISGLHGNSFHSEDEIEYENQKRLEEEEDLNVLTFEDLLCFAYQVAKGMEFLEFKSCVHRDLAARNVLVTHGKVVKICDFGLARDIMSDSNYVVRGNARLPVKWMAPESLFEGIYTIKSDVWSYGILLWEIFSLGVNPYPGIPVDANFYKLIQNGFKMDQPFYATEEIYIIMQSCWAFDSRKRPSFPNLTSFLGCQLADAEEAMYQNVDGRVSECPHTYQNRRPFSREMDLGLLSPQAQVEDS

In experiment [9] the target is Serine/threonine-protein kinase pim-1 (Homo sapiens, UniProt P11309).
Chain of Serine/threonine-protein kinase pim-1 (P11309 whole entry): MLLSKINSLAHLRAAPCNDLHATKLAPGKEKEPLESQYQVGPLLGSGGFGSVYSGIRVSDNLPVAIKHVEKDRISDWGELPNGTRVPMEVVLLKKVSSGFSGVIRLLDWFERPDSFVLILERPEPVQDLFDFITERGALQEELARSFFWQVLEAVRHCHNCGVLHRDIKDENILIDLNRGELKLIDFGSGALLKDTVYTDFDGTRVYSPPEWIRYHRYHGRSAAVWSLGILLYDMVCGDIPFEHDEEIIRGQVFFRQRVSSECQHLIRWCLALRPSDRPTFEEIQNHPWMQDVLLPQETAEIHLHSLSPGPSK
For experiment [10], the target named is Serine/threonine-protein kinase PLK2 (Homo sapiens, UniProt Q9NYY3).
Chain of Serine/threonine-protein kinase PLK2 (Q9NYY3 whole entry): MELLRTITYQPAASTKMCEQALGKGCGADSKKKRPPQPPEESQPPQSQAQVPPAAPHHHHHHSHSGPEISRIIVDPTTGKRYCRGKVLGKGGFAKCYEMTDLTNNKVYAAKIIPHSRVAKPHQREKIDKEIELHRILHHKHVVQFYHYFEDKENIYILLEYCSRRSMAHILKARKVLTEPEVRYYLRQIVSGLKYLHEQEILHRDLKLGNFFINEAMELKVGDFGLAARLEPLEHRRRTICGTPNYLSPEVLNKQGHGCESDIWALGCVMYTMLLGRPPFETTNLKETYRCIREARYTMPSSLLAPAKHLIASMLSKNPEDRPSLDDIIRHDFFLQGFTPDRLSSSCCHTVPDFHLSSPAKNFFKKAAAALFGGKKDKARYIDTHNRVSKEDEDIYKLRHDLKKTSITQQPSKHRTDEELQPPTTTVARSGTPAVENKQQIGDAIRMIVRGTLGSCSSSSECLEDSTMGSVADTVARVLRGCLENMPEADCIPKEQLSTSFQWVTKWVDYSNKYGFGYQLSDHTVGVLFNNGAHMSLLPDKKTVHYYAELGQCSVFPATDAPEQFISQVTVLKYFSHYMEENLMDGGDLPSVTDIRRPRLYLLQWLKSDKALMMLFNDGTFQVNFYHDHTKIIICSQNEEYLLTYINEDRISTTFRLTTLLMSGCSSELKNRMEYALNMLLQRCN
Experiment [11] deals with Ribosomal protein S6 kinase alpha-1 (Homo sapiens, UniProt Q15418).
Chain of Ribosomal protein S6 kinase alpha-1 (Q15418 whole entry): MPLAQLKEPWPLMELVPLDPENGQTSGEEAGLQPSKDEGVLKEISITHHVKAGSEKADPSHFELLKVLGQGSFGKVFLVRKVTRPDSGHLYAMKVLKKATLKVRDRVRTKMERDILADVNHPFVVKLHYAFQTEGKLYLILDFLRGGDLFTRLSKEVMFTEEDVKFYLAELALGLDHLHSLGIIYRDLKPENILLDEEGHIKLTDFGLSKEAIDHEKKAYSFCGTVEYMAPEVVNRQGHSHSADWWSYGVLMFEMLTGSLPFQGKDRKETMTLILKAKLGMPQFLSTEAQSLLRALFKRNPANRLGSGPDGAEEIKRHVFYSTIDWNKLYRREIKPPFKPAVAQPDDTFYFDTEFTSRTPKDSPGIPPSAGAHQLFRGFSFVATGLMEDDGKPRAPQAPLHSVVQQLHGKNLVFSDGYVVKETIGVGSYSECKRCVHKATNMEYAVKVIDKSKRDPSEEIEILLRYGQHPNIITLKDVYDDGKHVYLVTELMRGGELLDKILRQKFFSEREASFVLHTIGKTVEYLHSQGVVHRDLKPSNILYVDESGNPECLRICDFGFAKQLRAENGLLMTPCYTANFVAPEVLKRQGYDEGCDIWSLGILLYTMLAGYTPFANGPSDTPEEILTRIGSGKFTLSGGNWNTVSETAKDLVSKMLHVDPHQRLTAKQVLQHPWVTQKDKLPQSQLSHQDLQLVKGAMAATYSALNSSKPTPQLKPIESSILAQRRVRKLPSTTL

Some results are limits rather than exact numbers.

Chain of Tyrosine-protein kinase ABL1 (P00519 whole entry): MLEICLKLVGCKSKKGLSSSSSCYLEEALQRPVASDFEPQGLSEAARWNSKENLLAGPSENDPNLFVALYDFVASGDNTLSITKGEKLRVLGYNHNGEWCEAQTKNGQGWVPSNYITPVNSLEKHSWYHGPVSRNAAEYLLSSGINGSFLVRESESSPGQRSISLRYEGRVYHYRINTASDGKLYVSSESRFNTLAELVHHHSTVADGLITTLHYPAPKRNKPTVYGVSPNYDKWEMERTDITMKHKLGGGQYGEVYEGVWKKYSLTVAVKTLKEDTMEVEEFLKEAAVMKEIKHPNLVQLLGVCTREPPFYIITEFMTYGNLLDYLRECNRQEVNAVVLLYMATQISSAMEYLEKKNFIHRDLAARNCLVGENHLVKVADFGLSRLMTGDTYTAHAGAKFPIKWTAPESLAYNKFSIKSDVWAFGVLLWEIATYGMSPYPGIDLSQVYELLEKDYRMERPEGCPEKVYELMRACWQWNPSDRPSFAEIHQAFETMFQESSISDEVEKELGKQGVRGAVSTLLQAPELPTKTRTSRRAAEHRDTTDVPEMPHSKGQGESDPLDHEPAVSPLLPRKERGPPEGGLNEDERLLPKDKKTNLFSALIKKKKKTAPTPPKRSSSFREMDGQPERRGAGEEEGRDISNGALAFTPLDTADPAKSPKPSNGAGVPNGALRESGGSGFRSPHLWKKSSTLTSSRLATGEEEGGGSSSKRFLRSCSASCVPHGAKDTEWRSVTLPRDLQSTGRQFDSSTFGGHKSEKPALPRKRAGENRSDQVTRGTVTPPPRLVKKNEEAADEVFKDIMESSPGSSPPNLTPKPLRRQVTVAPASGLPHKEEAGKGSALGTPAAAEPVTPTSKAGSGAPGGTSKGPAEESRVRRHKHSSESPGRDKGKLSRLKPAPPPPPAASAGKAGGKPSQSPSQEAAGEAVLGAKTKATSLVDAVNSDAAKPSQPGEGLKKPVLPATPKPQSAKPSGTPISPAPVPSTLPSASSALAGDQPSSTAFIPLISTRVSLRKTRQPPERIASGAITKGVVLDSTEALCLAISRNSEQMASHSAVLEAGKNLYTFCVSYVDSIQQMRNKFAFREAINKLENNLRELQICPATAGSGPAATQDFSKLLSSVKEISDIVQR

For `COc1ccc(NC(=S)N/N=C/c2ccc(NC(C)=O)cc2)cc1`, the IC50 in the experiment “cells [1]” and in the experiment “cells [2]” was over 50 µM each time.

In the case of `Cc1cnc(/C=N/NC(N)=S)c2cccc(N)c12`, the IC50 in the experiment “cells [1]” was 2.1 µM; in the experiment “cells [1]” (read-out: pIC50 (converted)), 2.09 µM; in “cells [2]” it was 1.9 µM; in the experiment “cells [2]” (read-out: pIC50 (converted)) it was 1.91 µM.

Take `CC(=O)Nc1ccc(/C=N/NC(N)=S)cc1` [AMITHIOZONE]: the IC50 in “cells [1]” and in the experiment “cells [2]” was over 50 µM in each case.

On to `COc1ccc(NC(=S)N/N=C2\C(=O)Nc3ccc([N+](=O)[O-])cc32)cc1`, for which the IC50 in the experiment “cells [1]” was 6.7 µM; in the experiment “cells [1]” (read-out: pIC50 (converted)) it was 6.76 µM; in “cells [2]”, 26.3 µM; in the experiment “cells [2]” (read-out: pIC50 (converted)), 26.3 µM.

Take `COc1ccc(NC(=S)N/N=C2\C(=O)N(C)c3ccccc32)cc1`: the IC50 is 9.3 µM in the experiment “cells [1]”, 9.33 µM in the experiment “cells [1]” (read-out: pIC50 (converted)), 19.6 µM in “cells [2]” and 19.5 µM in “cells [2]” (read-out: pIC50 (converted)).

Turning to `COc1ccc(NC(=S)NN)cc1`, the IC50 in “cells [1]” and in “cells [2]” was over 50 µM in each case.

For `O=C1Nc2ccc(Br)cc2/C1=N/NC(=S)Nc1ccc(F)cc1`, the IC50 in “cells [1]” was 5.8 µM; in “cells [1]” (read-out: pIC50 (converted)), 5.75 µM; in the experiment “cells [2]”, 13.1 µM; in “cells [2]” (read-out: pIC50 (converted)), 13.2 µM.

With `O=C1Nc2ccc(Br)cc2/C1=N/NC(=S)Nc1ccc([N+](=O)[O-])cc1`, the IC50 in “cells [1]” is 4 µM; in “cells [1]” (read-out: pIC50 (converted)) it was 3.98 µM; in the experiment “cells [2]”, 28.4 µM; in the experiment “cells [2]” (read-out: pIC50 (converted)) it was 28.2 µM.

In the case of `O=C1Nc2ccccc2C1=O` [ISATIN], the IC50 in the experiment “cells [1]” and in “cells [2]” was over 50 µM throughout.

Take `O=C1Nc2ccc([N+](=O)[O-])cc2/C1=N/NC(=S)Nc1ccccc1`: the IC50 was 10.2 µM in “cells [1]”, 10.2 µM in “cells [1]” (read-out: pIC50 (converted)), 14.5 µM in the experiment “cells [2]” and 14.5 µM in the experiment “cells [2]” (read-out: pIC50 (converted)).

Take `COc1ccc(NC(=S)N/N=C2\C(=O)Nc3ccc(F)cc32)cc1`: the IC50 in the experiment “cells [1]” was 5.2 µM; in the experiment “cells [1]” (read-out: pIC50 (converted)), 5.25 µM; in “cells [2]”, 39.3 µM; in “cells [2]” (read-out: pIC50 (converted)), 38.9 µM.

On to `COc1ccc(NC(=O)N/N=C2\C(=O)Nc3ccccc32)cc1`, for which the IC50 in “cells [1]” was over 50 µM; in “cells [2]” it was 27.7 µM.

Turning to `NC(=O)N/N=C1\C(=O)Nc2ccccc21`, the IC50 in the experiment “cells [1]” and in the experiment “cells [2]” was over 50 µM throughout.

As for `NC(=S)N/N=C/c1ncccc1N` [TRIAPINE], the IC50 in the experiment “cells [1]” was 5.9 µM; in “cells [1]” (read-out: pIC50 (converted)), 5.89 µM; in the experiment “cells [2]”, 1.4 µM; in “cells [2]” (read-out: pIC50 (converted)), 1.41 µM.

For `C=CCNC(=S)N/N=C1\C(=O)Nc2ccc([N+](=O)[O-])cc21`, the IC50 is 34.3 µM in the experiment “cells [1]”, 35.5 µM in the experiment “cells [1]” (read-out: pIC50 (converted)), 17 µM in the experiment “cells [2]” and 28.2 µM in “cells [2]” (read-out: pIC50 (converted)).

As for `NC(=S)/N=N/c1c(O)[nH]c2ccccc12`, the IC50 in “cells [1]” and in “cells [2]” was over 50 µM each time.

Take `COc1ccc(NC(=S)NNC2=c3ccccc3=NC2=O)cc1`: the IC50 in experiment [3], in experiment [4], in [5], in experiment [6], in [7] and in experiment [8] was over 50 µM in each case. Moreover, the IC50 in experiment [9] is over 50 µM; in experiment [10], over 50 µM; in experiment [11], 34.9 µM; in “cells [1]” it was 3.3 µM; in the experiment “cells [1]” (read-out: pIC50 (converted)), 3.31 µM; in the experiment “cells [2]”, 14.2 µM. For the same molecule, the IC50 in the experiment “cells [2]” (read-out: pIC50 (converted)) was 14.1 µM.

As for `COc1ccc(NC(=S)N/N=C2\C(=O)Nc3ccc(S(=O)(=O)O)cc32)cc1`, the IC50 in “cells [1]” and in the experiment “cells [2]” was over 50 µM in each case.

For the molecule `COc1ccc(NC(=S)N/N=C2\C(=O)Nc3c2ccc2ccccc32)cc1`, the IC50 is 30.3 µM in “cells [1]”, 4.4 µM in “cells [2]” and 4.37 µM in “cells [2]” (read-out: pIC50 (converted)).

Consider `COc1ccc(NC(=S)NN=C2Cc3ccccc3C2)cc1`, for which the IC50 in the experiment “cells [1]” and in the experiment “cells [2]” was over 50 µM throughout.

As to `COc1ccc(NC(=S)N/N=C/c2ccccn2)cc1`, the IC50 was 2.4 µM in the experiment “cells [1]”, 2.4 µM in “cells [1]” (read-out: pIC50 (converted)), 3.4 µM in “cells [2]” and 3.39 µM in the experiment “cells [2]” (read-out: pIC50 (converted)).

`C=CCNC(=S)N/N=C1\C(=O)Nc2ccccc21`: the IC50 was 20.7 µM in the experiment “cells [1]”, 20.9 µM in “cells [1]” (read-out: pIC50 (converted)), 26.1 µM in the experiment “cells [2]” and 26.3 µM in the experiment “cells [2]” (read-out: pIC50 (converted)).

On to `CCOC(=O)C(=CNC(=S)N/N=C1\C(=O)Nc2ccccc21)C(=O)OCC`, for which the IC50 in the experiment “cells [1]” and in “cells [2]” was over 50 µM each time.

For the molecule `COc1ccc(NC(=S)N/N=C2\CCc3ccccc32)cc1`, the IC50 in the experiment “cells [1]” and in the experiment “cells [2]” was over 50 µM each time.

Values taken from ChEMBL document CHEMBL1138507, “Synthesis, activity, and pharmacophore development for isatin-beta-thiosemicarbazones with selective activity toward multidrug-resistant cells” (J Med Chem, 2009).
